Columns and labels:
Assay in all cases: Cell proliferation assay (ATPlite), drug with vs without cobicistat
Assay type in all cases: cell-based
A375 = A375 cell line; 120 hours incubation
Experimental: (§1) All cell lines were obtained from the American Type Culture Collection (ATCC) Manassas, Va. (US). Master and working cell banks (MCB and WCB) were prepared by subculturing in ATCC-recommended media and freezing protocols (www.atcc.org). Cell line stocks for the assays were prepared from the WCB. The MCB, WCBs and assay stocks were prepared within respectively 3, 6 and 9 passages of the ATCC vial.
(§2) Solid powders of reference compounds were weighed on a calibrated balance and dissolved in 100% DMSO. DMSO samples were stored at room temperature. At the day of the experiment, the compound stock was diluted in 3.16 fold steps in 100% DMSO to obtain a 9-point dilution series. This was further diluted 31.6 times in 20 mM sterile Hepes buffer pH 7.4. A volume of 5 μl was transferred to the cells to generate a test concentration range from 3.16×10^−5M to 3.16×10^−9 M in duplicate. The final DMSO concentration during incubation was […] in all wells.
(§3) An assay stock was thawed and diluted in its ATCC recommended medium and dispensed in a 384-well plate, depending on the cell line used, at a concentration of 200-3200 cells per well in 45 μl medium. For each used cell line the optimal cell density is used. The margins of the plate were filled with phosphate-buffered saline. Plated cells were incubated in a humidified atmosphere of 5% CO2 at 37° C. After 24 hours, 5 μl of compound dilution was added and plates were further incubated for another 120 hours. After 120 hours, 25 μl of ATPlite 1Step™ (PerkinElmer) solution was added to each well, and subsequently shaken for 2 minutes. After 10 minutes of incubation in the dark, the luminescence was recorded on an Envision multimode reader (PerkinElmer).
(§4) IC50s were calculated by non-linear regression using IDBS XLfit 5. The percentage growth after 120 h (%-growth) was calculated as follows: 100%×(luminescencet=120h/luminescenceuntreated,t=120h). This was fitted to the ^10log compound concentration (conc) by a 4-parameter logistics curve: %−growth=bottom+(top−bottom)/(1+10^(log IC50-conc)*hill)), where hill is the Hill-coefficient, and bottom and top the asymptotic minimum and maximum cell growth that the compound allows in that assay.

SW948 = SW948 cell line; 120 hours incubation
Experimental: as §1, §2, §3, §4

SJCRH30 = SJCRH30 cell line; 120 hours incubation
Experimental: as §1, §2, §3, §4

SW480 = SW480 cell line; 120 hours incubation
Experimental: as §1, §2, §3, §4

MG-63 = MG-63 cell line; 120 hours incubation
Experimental: as §1, §2, §3, §4

SW48 = SW48 cell line; 120 hours incubation
Experimental: as §1, §2, §3, §4

769-P = 769-P cell line; 120 hours incubation
Experimental: as §1, §2, §3, §4

BT-20 = BT-20 cell line; 120 hours incubation
Experimental: as §1, §2, §3, §4

MCF7 = MCF7 cell line; 120 hours incubation
Experimental: as §1, §2, §3, §4

BxPC-3 = BxPC-3 cell line; 120 hours incubation
Experimental: as §1, §2, §3, §4

COLO 205 = COLO 205 cell line; 120 hours incubation
Experimental: as §1, §2, §3, §4

Daoy = Daoy cell line; 120 hours incubation
Experimental: as §1, §2, §3, §4

A388 = A388 cell line; 120 hours incubation
Experimental: as §1, §2, §3, §4

HCT-15 = HCT-15 cell line; 120 hours incubation
Experimental: as §1, §2, §3, §4

VA-ES-BJ = VA-ES-BJ cell line; 120 hours incubation
Experimental: as §1, §2, §3, §4

DU 145 = DU 145 cell line; 120 hours incubation
Experimental: as §1, §2, §3, §4

J82 = J82 cell line; 120 hours incubation
Experimental: as §1, §2, §3, §4

FaDu = FaDu cell line; 120 hours incubation
Experimental: as §1, §2, §3, §4

SNU-C2B = SNU-C2B cell line; 120 hours incubation
Experimental: as §1, §2, §3, §4

A-172 = A-172 cell line; 120 hours incubation
Experimental: as §1, §2, §3, §4

DoTc2 4510 = DoTc2 4510 cell line; 120 hours incubation
Experimental: as §1, §2, §3, §4

SR = SR cell line; 120 hours incubation
Experimental: as §1, §2, §3, §4

SK-N-AS = SK-N-AS cell line; 120 hours incubation
Experimental: as §1, §2, §3, §4

SUP-T1 = SUP-T1 cell line; 120 hours incubation
Experimental: as §1, §2, §3, §4

ACHN = ACHN cell line; 120 hours incubation
Experimental: as §1, §2, §3, §4

MOLT-4 = MOLT-4 cell line; 120 hours incubation
Experimental: as §1, §2, §3, §4

T24 = T24 cell line; 120 hours incubation
Experimental: as §1, §2, §3, §4

786-O = 786-O cell line; 120 hours incubation
Experimental: as §1, §2, §3, §4

SW620 = SW620 cell line; 120 hours incubation
Experimental: as §1, §2, §3, §4

HCT 116 = HCT 116 cell line; 120 hours incubation
Experimental: as §1, §2, §3, §4

SMILES | Fold change in IC50 (IC50 [Drug + Cobicistat]/IC50 [Drug]) (A375) [fold] | Fold change in IC50 (IC50 [Drug + Cobicistat]/IC50 [Drug]) (SW948) [fold] | Fold change in IC50 (IC50 [Drug + Cobicistat]/IC50 [Drug]) (SJCRH30) [fold] | Fold change in IC50 (IC50 [Drug + Cobicistat]/IC50 [Drug]) (SW480) [fold] | Fold change in IC50 (IC50 [Drug + Cobicistat]/IC50 [Drug]) (MG-63) [fold] | Fold change in IC50 (IC50 [Drug + Cobicistat]/IC50 [Drug]) (SW48) [fold] | Fold change in IC50 (IC50 [Drug + Cobicistat]/IC50 [Drug]) (769-P) [fold] | Fold change in IC50 (IC50 [Drug + Cobicistat]/IC50 [Drug]) (BT-20) [fold] | Fold change in IC50 (IC50 [Drug + Cobicistat]/IC50 [Drug]) (MCF7) [fold] | Fold change in IC50 (IC50 [Drug + Cobicistat]/IC50 [Drug]) (BxPC-3) [fold] | Fold change in IC50 (IC50 [Drug + Cobicistat]/IC50 [Drug]) (COLO 205) [fold] | Fold change in IC50 (IC50 [Drug + Cobicistat]/IC50 [Drug]) (Daoy) [fold] | Fold change in IC50 (IC50 [Drug + Cobicistat]/IC50 [Drug]) (A388) [fold] | Fold change in IC50 (IC50 [Drug + Cobicistat]/IC50 [Drug]) (HCT-15) [fold] | Fold change in IC50 (IC50 [Drug + Cobicistat]/IC50 [Drug]) (VA-ES-BJ) [fold] | Fold change in IC50 (IC50 [Drug + Cobicistat]/IC50 [Drug]) (DU 145) [fold] | Fold change in IC50 (IC50 [Drug + Cobicistat]/IC50 [Drug]) (J82) [fold] | Fold change in IC50 (IC50 [Drug + Cobicistat]/IC50 [Drug]) (FaDu) [fold] | Fold change in IC50 (IC50 [Drug + Cobicistat]/IC50 [Drug]) (SNU-C2B) [fold] | Fold change in IC50 (IC50 [Drug + Cobicistat]/IC50 [Drug]) (A-172) [fold] | also measured
CC[C@]1(O)C[C@@H]2CN(CCc3c([nH]c4ccccc34)[C@@](C(=O)OC)(c3cc4c(cc3OC)N(C)[C@H]3[C@@](O)(C(=O)OC)[C@H](OC(C)=O)[C@]5(CC)C=CCN6CC[C@]43[C@@H]65)C2)C1 [vinblastine] | 3.4 | 4.2 | 3.8 | 3.3 | 2.8 | 2.5 | 2.5 | 2.7 | 5.3 | 2.4 | 4.9 | 5.7 | 4.7 | 2.3 | 4.3 | 5.4 | 4.2 | 2.2 | 4.5 | 3.0 | Fold change in IC50 (IC50 [Drug + Cobicistat]/IC50 [Drug]) (DoTc2 4510): 5.0 fold; Fold change in IC50 (IC50 [Drug + Cobicistat]/IC50 [Drug]) (SR): 4.0 fold; Fold change in IC50 (IC50 [Drug + Cobicistat]/IC50 [Drug]) (SK-N-AS): 3.7 fold; Fold change in IC50 (IC50 [Drug + Cobicistat]/IC50 [Drug]) (SUP-T1): 3.0 fold; Fold change in IC50 (IC50 [Drug + Cobicistat]/IC50 [Drug]) (ACHN): 3.8 fold; Fold change in IC50 (IC50 [Drug + Cobicistat]/IC50 [Drug]) (MOLT-4): 2.8 fold; Fold change in IC50 (IC50 [Drug + Cobicistat]/IC50 [Drug]) (T24): 5.2 fold; Fold change in IC50 (IC50 [Drug + Cobicistat]/IC50 [Drug]) (786-O): 2.5 fold; Fold change in IC50 (IC50 [Drug + Cobicistat]/IC50 [Drug]) (SW620): 2.7 fold; Fold change in IC50 (IC50 [Drug + Cobicistat]/IC50 [Drug]) (HCT 116): 2.0 fold
COc1cccc2c1C(=O)c1c(O)c3c(c(O)c1C2=O)C[C@@](O)(C(=O)CO)C[C@@H]3O[C@H]1C[C@H](N)[C@H](O)[C@H](C)O1 [doxorubicin] | 2.2 | 2.5 | 2.2 | 2.5 | 2.4 | 1.8 | 5.1 | 1.0 | 1.9 | 2.2 | 2.3 | 1.6 | 1.7 | 2.0 | 2.8 | 2.1 | 2.2 | 1.7 | 1.2 | 2.5 | Fold change in IC50 (IC50 [Drug + Cobicistat]/IC50 [Drug]) (DoTc2 4510): 1.7 fold; Fold change in IC50 (IC50 [Drug + Cobicistat]/IC50 [Drug]) (SR): 1.8 fold; Fold change in IC50 (IC50 [Drug + Cobicistat]/IC50 [Drug]) (SK-N-AS): 2.3 fold; Fold change in IC50 (IC50 [Drug + Cobicistat]/IC50 [Drug]) (SUP-T1): 2.0 fold; Fold change in IC50 (IC50 [Drug + Cobicistat]/IC50 [Drug]) (ACHN): 2.2 fold; Fold change in IC50 (IC50 [Drug + Cobicistat]/IC50 [Drug]) (MOLT-4): 1.9 fold; Fold change in IC50 (IC50 [Drug + Cobicistat]/IC50 [Drug]) (T24): 1.8 fold; Fold change in IC50 (IC50 [Drug + Cobicistat]/IC50 [Drug]) (786-O): 2.3 fold; Fold change in IC50 (IC50 [Drug + Cobicistat]/IC50 [Drug]) (SW620): 2.6 fold; Fold change in IC50 (IC50 [Drug + Cobicistat]/IC50 [Drug]) (HCT 116): 1.8 fold

Reference: patent publication US20180036289A1 (Gilead Sciences, Inc., priority 2016, published 2018)
